Source: patent publication EP0545195B1, “Indolopyrrolocarbazole derivatives” (BANYU PHARMACEUTICAL CO., LTD., priority 1991, dated 1993)

Assays:
[1] = test system: mouse leukemia cell P388; assay: Proliferation inhibition activity against mouse leukemia cell (Thiazoyl Blue assay); assay type: cell-based; conditions: P388 cells, 24 hours culture with test compound, absorbance at 550 nm, read-out: 50% inhibitory concentration (IC₅₀)
Description: (2) Proliferation inhibition activity against mouse leukemia cell
100 µl portions of a cell culturing medium (10% fetal bovine serum-containing-RPMI-1640 medium) containing 3x10³ mouse leukemia cell (P388) were put in a 96-hole microplate, the cells were cultured under 5% CO₂ at 37°C for 24 hours, 10 µl each of test solutions containing test compounds respectively were added respectively, and the cells were further cultured under 5% CO₂ at 37°C for 24 hours. 10 µl portions of 0.5% Thiazoyl Blue were added to the culture broths, and incubation was carried out under 5% CO₂ at 37°C for 2 hours to carry out enzymatic reaction. 20% sodium dodecyl sulfate (SDS) was added to discontinue the reaction, incubation was further carried out at 37°C for 4 hours to dissolve the formed dye, and absorbance at 550 nm was measured and compared with the control group.

[2] = test system: mouse tumor (P388); assay: Therapeutic effect against mouse tumor (P388); assay type: in vivo; conditions: P388, 10⁶ cancer cells inoculated i.p.
Source text: (1) Therapeutic effect against mouse tumor (P388)

[3] = dose 1 mg/kg/injection i.p. once a day from 1st to 10th day
[4] = dose 3 mg/kg/injection i.p. once a day from 1st to 10th day
[5] = dose 10 mg/kg/injection i.p. once a day from 1st to 10th day
[6] = dose 30 mg/kg/injection i.p. once a day from 1st to 10th day
[7] = dose 100 mg/kg/injection i.p. once a day from 1st to 10th day

SMILES | IC50 [1] [µM] | other results
NC(=S)NN1C(=O)c2c(c3c4cccc(O)c4n([C@@H]4O[C@H](CO)[C@@H](O)[C@H](O)[C@H]4O)c3c3[nH]c4c(O)cccc4c23)C1=O [Example 10] | 0.46 | –
CC(=O)NN1C(=O)c2c(c3c4cccc(O)c4n([C@@H]4O[C@H](CO)[C@@H](O)[C@H](O)[C@H]4O)c3c3[nH]c4c(O)cccc4c23)C1=O [Example 6] | 0.059 | –
NC(=O)CNN1C(=O)c2c(c3c4cccc(O)c4n([C@@H]4O[C@H](CO)[C@@H](O)[C@H](O)[C@H]4O)c3c3[nH]c4c(O)cccc4c23)C1=O [Example 14] | < 0.027 | –
CC(C)(C)OC(=O)NN1C(=O)c2c(c3c4cccc(O)c4n([C@@H]4O[C@H](CO)[C@@H](O)[C@H](O)[C@H]4O)c3c3[nH]c4c(O)cccc4c23)C1=O [Example 27] | 0.027 | –
NNC(=O)NN1C(=O)c2c(c3c4cccc(O)c4n([C@@H]4O[C@H](CO)[C@@H](O)[C@H](O)[C@H]4O)c3c3[nH]c4c(O)cccc4c23)C1=O [Example 22] | 0.11 | –
NN1C(=O)c2c(c3c4cccc(O)c4n([C@@H]4O[C@H](CO)[C@@H](O)[C@H](O)[C@H]4O)c3c3[nH]c4c(O)cccc4c23)C1=O [Example 1] | < 0.03 | –
C=CCNN1C(=O)c2c(c3c4cccc(O)c4n([C@@H]4O[C@H](CO)[C@@H](O)[C@H](O)[C@H]4O)c3c3[nH]c4c(O)cccc4c23)C1=O [Example 28] | < 0.029 | –
NC(=O)C(=O)NN1C(=O)c2c(c3c4cccc(O)c4n([C@@H]4O[C@H](CO)[C@@H](O)[C@H](O)[C@H]4O)c3c3[nH]c4c(O)cccc4c23)C1=O [Example 17] | 0.044 | –
NC(=O)NN1C(=O)c2c(c3c4cccc(O)c4n([C@@H]4O[C@H](CO)[C@@H](O)[C@H](O)[C@H]4O)c3c3[nH]c4c(O)cccc4c23)C1=O [Example 9] | 0.028 | –
O=C1c2c(c3c4cccc(O)c4n([C@@H]4O[C@H](CO)[C@@H](O)[C@H](O)[C@H]4O)c3c3[nH]c4c(O)cccc4c23)C(=O)N1NCc1cccc(O)c1 [Example 23] | < 0.025 | –
COC(=O)NN1C(=O)c2c(c3c4cccc(O)c4n([C@@H]4O[C@H](CO)[C@@H](O)[C@H](O)[C@H]4O)c3c3[nH]c4c(O)cccc4c23)C1=O [Example 30] | 0.003 | –
O=C(O)CNN1C(=O)c2c(c3c4cccc(O)c4n([C@@H]4O[C@H](CO)[C@@H](O)[C@H](O)[C@H]4O)c3c3[nH]c4c(O)cccc4c23)C1=O [Example 8] | 0.3 | –
O=C1c2c(c3c4cccc(O)c4n([C@@H]4O[C@H](CO)[C@@H](O)[C@H](O)[C@H]4O)c3c3[nH]c4c(O)cccc4c23)C(=O)N1Nc1ccccn1 [Example 15] | 0.31 | –
O=C(Nc1ccccc1)NN1C(=O)c2c(c3c4cccc(O)c4n([C@@H]4O[C@H](CO)[C@@H](O)[C@H](O)[C@H]4O)c3c3[nH]c4c(O)cccc4c23)C1=O [Example 33] | 0.11 | –
CS(=O)(=O)NN1C(=O)c2c(c3c4cccc(O)c4n([C@@H]4O[C@H](CO)[C@@H](O)[C@H](O)[C@H]4O)c3c3[nH]c4c(O)cccc4c23)C1=O [Example 11] | < 0.026 | –
O=C1c2c(c3c4cccc(O)c4n([C@@H]4O[C@H](CO)[C@@H](O)[C@H](O)[C@H]4O)c3c3[nH]c4c(O)cccc4c23)C(=O)N1NC1=NCCN1 [Example 25] | 0.048 | –
O=C(O)CCC=NN1C(=O)c2c(c3c4cccc(O)c4n([C@@H]4O[C@H](CO)[C@@H](O)[C@H](O)[C@H]4O)c3c3[nH]c4c(O)cccc4c23)C1=O [Example 3] | 0.065 | –
CNN1C(=O)c2c(c3c4cccc(O)c4n([C@@H]4O[C@H](CO)[C@@H](O)[C@H](O)[C@H]4O)c3c3[nH]c4c(O)cccc4c23)C1=O [Example 7] | 0.091 | –
O=C(NN1C(=O)c2c(c3c4cccc(O)c4n([C@@H]4O[C@H](CO)[C@@H](O)[C@H](O)[C@H]4O)c3c3[nH]c4c(O)cccc4c23)C1=O)c1ccccn1 [Example 35] | 0.17 | –
O=C1c2c(c3c4cccc(O)c4n([C@@H]4O[C@H](CO)[C@@H](O)[C@H](O)[C@H]4O)c3c3[nH]c4c(O)cccc4c23)C(=O)N1N(Cc1ccccc1)Cc1ccccc1 [Example 29] | 0.005 | –
O=C1c2c(c3c4cccc(O)c4n([C@@H]4O[C@H](CO)[C@@H](O)[C@H](O)[C@H]4O)c3c3[nH]c4c(O)cccc4c23)C(=O)N1N1CCCC1 [Example 37] | 0.095 | –
O=C(O)C=NN1C(=O)c2c(c3c4cccc(O)c4n([C@@H]4O[C@H](CO)[C@@H](O)[C@H](O)[C@H]4O)c3c3[nH]c4c(O)cccc4c23)C1=O [Example 2] | 0.29 | MST (mean survival number of days) [2, 3]: 15.8 ± 0.84 days; T/C (%) (MST of treatment group/MST of control x 100) [2, 3]: 128%; MST (mean survival number of days) [2, 4]: 17.8 ± 1.92 days; T/C (%) (MST of treatment group/MST of control x 100) [2, 4]: 145%; MST (mean survival number of days) [2, 5]: >26.4 ± 18.82 days; T/C (%) (MST of treatment group/MST of control x 100) [2, 5]: >245%; MST (mean survival number of days) [2, 6]: >42.2 ± 24.38 days; T/C (%) (MST of treatment group/MST of control x 100) [2, 6]: >343%; MST (mean survival number of days) [2, 7]: >47.2 ± 18.90 days; T/C (%) (MST of treatment group/MST of control x 100) [2, 7]: >384%
O=C1c2c(c3c4cccc(O)c4n([C@@H]4O[C@H](CO)[C@@H](O)[C@H](O)[C@H]4O)c3c3[nH]c4c(O)cccc4c23)C(=O)N1NC(=O)C(F)(F)F [Example 13] | 0.22 | –
N#CCCNN1C(=O)c2c(c3c4cccc(O)c4n([C@@H]4O[C@H](CO)[C@@H](O)[C@H](O)[C@H]4O)c3c3[nH]c4c(O)cccc4c23)C1=O [Example 24] | 0.001 | –
CO[C@H]1[C@H](O)[C@@H](O)[C@H](n2c3c(Cl)cccc3c3c4c(c5c6cccc(Cl)c6[nH]c5c32)C(=O)N(N)C4=O)O[C@@H]1CO [Example 4, 6-N-aminorebeccamycin] | 0.096 | –
CCC(=O)NN1C(=O)c2c(c3c4cccc(O)c4n([C@@H]4O[C@H](CO)[C@@H](O)[C@H](O)[C@H]4O)c3c3[nH]c4c(O)cccc4c23)C1=O [Example 12] | 0.042 | –
O=C1c2c(c3c4cccc(O)c4n([C@@H]4O[C@H](CO)[C@@H](O)[C@H](O)[C@H]4O)c3c3[nH]c4c(O)cccc4c23)C(=O)N1NCCO [Example 36] | 0.002 | –
O=CNN1C(=O)c2c(c3c4cccc(O)c4n([C@@H]4O[C@H](CO)[C@@H](O)[C@H](O)[C@H]4O)c3c3[nH]c4c(O)cccc4c23)C1=O [Example 5] | 0.28 | MST (mean survival number of days) [2, 3]: 16.8 ± 0.84 days; T/C (%) (MST of treatment group/MST of control x 100) [2, 3]: 137%; MST (mean survival number of days) [2, 4]: 17.8 ± 1.92 days; T/C (%) (MST of treatment group/MST of control x 100) [2, 4]: 145%; MST (mean survival number of days) [2, 5]: >26.2 ± 10.18 days; T/C (%) (MST of treatment group/MST of control x 100) [2, 5]: >213%; MST (mean survival number of days) [2, 6]: >23.4 ± 9.74 days; T/C (%) (MST of treatment group/MST of control x 100) [2, 6]: >190%; MST (mean survival number of days) [2, 7]: >36.4 ± 8.05 days; T/C (%) (MST of treatment group/MST of control x 100) [2, 7]: >296%
CC1(C)OC[C@@H]([C@@H](O)C(=O)NN2C(=O)c3c(c4c5cccc(O)c5n([C@@H]5O[C@H](CO)[C@@H](O)[C@H](O)[C@H]5O)c4c4[nH]c5c(O)cccc5c34)C2=O)O1 [Example 31] | 0.011 | –
O=C(NN1C(=O)c2c(c3c4cccc(O)c4n([C@@H]4O[C@H](CO)[C@@H](O)[C@H](O)[C@H]4O)c3c3[nH]c4c(O)cccc4c23)C1=O)c1ccccc1 [Example 34] | 0.019 | –
